Here are results for 21 compounds from patent US10106504B2, “Pyridin-3-yl acetic acid derivatives as inhibitors of human immunodeficiency virus replication” (priority 2015, dated 2018).

pEC50: −log10 of the molar value. Where two headings read alike, the source gives them in different places.

The test system of this assay is NL-RLuc virus. As to the kind of experiment: Inhibition of HIV replication (NL-RLuc virus, luciferase readout in MT-2 cells). Format: cell-based. To be noted: Human immunodeficiency virus 1, MT2, 120 h; for pEC50: read-out: Activity; for EC50: read-out: EC50 μM. The source says:
Inhibition of HIV Replication:
A recombinant NL-RLuc proviral clone was constructed in which a section of the nef gene from NL4-3 was replaced with the Renilla Luciferase gene. This virus is fully infectious and can undergo multiple cycles of replication in cell culture. In addition, the luciferous reporter provides a simple and easy method for quantitating the extent of virus growth and consequently, the antiviral activity of test compounds. The plasmid pNLRLuc contains the proviral NL-Rluc DNA cloned into pUC18 at the PvuII site. The NL-RLuc virus was prepared by transfection of 293T cells with the plasmid pNLRLuc. Transfections were performed using the LipofectAMINE PLUS kit from Invitrogen (Carlsbad, Calif.) according to the manufacturer and the virus generated was titered in MT-2 cells. For susceptibility analyses, the titrated virus was used to infect MT-2 cells in the presence of compound, and after 5 days of incubation, cells were processed and quantitated for virus growth by the amount of expressed luciferase. Assay media was RPMI 1640 supplemented with 10% heat inactivated fetal bovine serum (FBS), 100 units/ml penicillin G/100 units/ml streptomycin, 10 mM HEPES buffer pH 7.55 and 2 mM L-glutamine. The results from at least 2 experiments were used to calculate the EC50 values. Luciferase was quantitated using the Dual Luciferase kit from Promega (Madison, Wis.). Susceptibility of viruses to compounds was determined by incubation in the presence of serial dilutions of the compound. The 50% effective concentration (EC50) was calculated by using the exponential form of the median effect equation where (Fa)=1/[1+(ED50/drug conc.)^m] (Johnson V A, Byington R T. Infectivity Assay. In Techniques in HIV Research. ed. Aldovini A, Walker BD. 71-76. New York: Stockton Press. 1990). Activity equal to A refers to a compound having an EC50<100 nM, while B and C denote compounds having an EC50 between 100 nM and 1 uM (B) or >1 uM (C).

With `Cc1nc(C)c([C@H](OC(C)(C)C)C(=O)O)c(-c2cc(F)c3c(c2)C=CCO3)c1-c1ccc(OCCc2ccc(F)cc2)cc1` [Example 47, (S)-2-(tert-Butoxy)-2-(4-(8-fluoro-2H-chromen-6-yl)-5-(4-(4-fluorophenethoxy)phenyl)-2,6-dimethylpyridin-3-yl)acetic Acid], the pEC50 was over 7.00.
As for `Cc1nc(C)c([C@H](OC(C)(C)C)C(=O)O)c(-c2ccc(OCCc3ccc(F)cc3)cc2)c1-c1ccc(OCCc2ccc(F)cc2)cc1` [Example 8, (S)-2-(4,5-Bis(4-(4-fluorophenethoxy)phenyl)-2,6-dimethylpyridin-3-yl)-2-(tert-butoxy)acetic Acid], the pEC50 was 6.00 to 7.00.
For `Cc1nc(C)c([C@H](OC(C)(C)C)C(=O)O)c(-c2ccc3c(c2)CCCO3)c1-c1ccc2c(c1)CCN(Cc1ccc(F)cc1)C2` [Example 20, (S)-2-(tert-Butoxy)-2-(4-(chroman-6-yl)-5-(2-(4-fluorobenzyl)-1,2,3,4-tetrahydroisoquinolin-6-yl)-2,6-dimethylpyridin-3-yl)acetic Acid], the pEC50 is over 7.00.
For `Cc1cc(F)ccc1CN1CCc2cc(-c3c(C)nc(C)c([C@H](OC(C)(C)C)C(=O)O)c3-c3ccc4c(c3)CCCO4)ccc2C1` [Example 56, (S)-2-(tert-Butoxy)-2-(4-(chroman-6-yl)-5-(2-(4-fluoro-2-methylbenzyl)-1,2,3,4-tetrahydroisoquinolin-6-yl)-2,6-dimethylpyridin-3-yl)acetic Acid], the pEC50 was over 7.00.
Same read-out and setting: the same measure for `Cc1ccc(CN2CCc3cc(-c4c(C)nc(C)c([C@H](OC(C)(C)C)C(=O)O)c4-c4ccc5c(c4)CCCO5)ccc3C2)c(C)c1` [Example 28, (S)-2-(tert-Butoxy)-2-(4-(chroman-6-yl)-5-(2-(2,4-dimethylbenzyl)-1,2,3,4-tetrahydroisoquinolin-6-yl)-2,6-dimethylpyridin-3-yl)acetic Acid]: over 7.00; for `CCOCCOCc1nc(C)c([C@H](OC(C)(C)C)C(=O)O)c(-c2ccc3c(c2)CCCO3)c1-c1ccc(OCCc2ccc(F)cc2)cc1` [Example 17, (S)-2-(tert-Butoxy)-2-(4-(chroman-6-yl)-6-((2-ethoxyethoxy)methyl)-5-(4-(4-fluorophenethoxy)phenyl)-2-methylpyridin-3-yl)acetic Acid]: over 7.00; for `COc1nccc(N2CCc3cc(-c4c(C)nc(C)c([C@H](OC(C)(C)C)C(=O)O)c4-c4ccc5c(c4)CCCO5)ccc3C2)n1` [Example 57, (S)-2-(tert-Butoxy)-2-(4-(chroman-6-yl)-5-(2-(2-methoxypyrimidin-4-yl)-1,2,3,4-tetrahydroisoquinolin-6-yl)-2,6-dimethylpyridin-3-yl)acetic Acid]: over 7.00.
Same read-out and setting: the same measure for `Cc1nc(CN(C)CC2CCOCC2)c(-c2ccc(OCCc3ccc(F)cc3)cc2)c(-c2ccc3c(c2)CCCO3)c1[C@H](OC(C)(C)C)C(=O)O` [Example 13, (S)-2-(tert-Butoxy)-2-(4-(chroman-6-yl)-5-(4-(4-fluorophenethoxy)phenyl)-2-methyl-6-((methyl((tetrahydro-2H-pyran-4-yl)methyl)amino)methyl)pyridin-3-yl)acetic Acid]: over 7.00.
Consider `Cc1nc(N)c(-c2ccc3c(c2)CCN(Cc2cccc(F)c2C)C3)c(-c2ccc3c(c2)CCCO3)c1[C@H](OC(C)(C)C)C(=O)O` [Example 61, (S)-2-(6-Amino-4-(chroman-6-yl)-5-(2-(3-fluoro-2-methylbenzyl)-1,2,3,4-tetrahydroisoquinolin-6-yl)-2-methylpyridin-3-yl)-2-(tert-butoxy)acetic acid], for which the pEC50 is over 7.00.
For `Cc1nc(C)c([C@H](OC(C)(C)C)C(=O)O)c(-c2ccc3c(c2)CCCO3)c1-c1ccc(OCCc2ccc(F)cc2F)cc1` [Example 44, (S)-2-(tert-Butoxy)-2-(4-(chroman-6-yl)-5-(4-(2,4-difluorophenethoxy)phenyl)-2,6-dimethylpyridin-3-yl)acetic Acid], the pEC50 was over 7.00.
As to `Cc1nc(CCCC2CCOCC2)c(-c2ccc(OCCc3ccc(F)cc3)cc2)c(-c2ccc3c(c2)CCCO3)c1[C@H](OC(C)(C)C)C(=O)O` [Example 66, (S)-2-(tert-Butoxy)-2-(4-(chroman-6-yl)-5-(4-(4-fluorophenethoxy)phenyl)-2-methyl-6-(3-(tetrahydro-2H-pyran-4-yl)propyl)pyridin-3-yl)acetic Acid], the pEC50 is over 7.00 and the EC50 worked out at 0.006 µM.
With `Cc1cccc(Cl)c1CN1CCc2cc(-c3c(CN(C)CC4CCOCC4)nc(C)c([C@H](OC(C)(C)C)C(=O)O)c3-c3ccc4c(c3)CCCO4)ccc2C1` [Example 35, (S)-2-(tert-Butoxy)-2-(5-(2-(2-chloro-6-methylbenzyl)-1,2,3,4-tetrahydroisoquinolin-6-yl)-4-(chroman-6-yl)-2-methyl-6-((methyl((tetrahydro-2H-pyran-4-yl)methyl)amino)methyl)pyridin-3-yl)acetic Acid], the pEC50 is over 7.00.
Still for that read-out and setting: the value for `Cc1cc(N2CCc3cc(-c4c(C)nc(C)c([C@H](OC(C)(C)C)C(=O)O)c4-c4cc(F)c5c(c4)CCCO5)ccc3C2)ncn1` [Example 52, (S)-2-(tert-Butoxy)-2-(4-(8-fluorochroman-6-yl)-2,6-dimethyl-5-(2-(6-methylpyrimidin-4-yl)-1,2,3,4-tetrahydroisoquinolin-6-yl)pyridin-3-yl)acetic Acid] was over 7.00; that for `Cc1nc(CN(C)CC2CCOCC2)c(-c2ccc3c(c2)CCN(c2ncnc4c2cnn4C)C3)c(-c2ccc3c(c2)CCCO3)c1[C@H](OC(C)(C)C)C(=O)O` [Example 32, (S)-2-(tert-Butoxy)-2-(4-(chroman-6-yl)-2-methyl-6-((methyl((tetrahydro-2H-pyran-4-yl)methyl)amino)methyl)-5-(2-(1-methyl-1H-pyrazolo[3,4-d]pyrimidin-4-yl)-1,2,3,4-tetrahydroisoquinolin-6-yl)pyridin-3-yl)acetic Acid] was 6.00 to 7.00.
On to `Cc1nc(C)c([C@H](OC(C)(C)C)C(=O)O)c(C2=CCC(C)(C)CC2)c1-c1ccc(OCCc2ccc(F)cc2)cc1` [Example 46, (S)-2-(tert-Butoxy)-2-(4-(4,4-dimethylcyclohex-1-en-1-yl)-5-(4-(4-fluorophenethoxy)phenyl)-2,6-dimethylpyridin-3-yl)acetic Acid], for which the pEC50 is over 7.00 and the EC50 worked out at 0.061 µM.
With `Cc1nc(C)c([C@H](OC(C)(C)C)C(=O)O)c(-c2ccc3c(c2)CCCO3)c1-c1ccc2c(c1)CCN(CCc1ccccc1F)C2` [Example 30, (S)-2-(tert-Butoxy)-2-(4-(chroman-6-yl)-5-(2-(2-fluorophenethyl)-1,2,3,4-tetrahydroisoquinolin-6-yl)-2,6-dimethylpyridin-3-yl)acetic Acid], the pEC50 was over 7.00.
Regarding `Cc1nc(C)c([C@H](OC(C)(C)C)C(=O)O)c(-c2ccc3c(c2)CCCO3)c1-c1ccc(OCCc2ccccc2F)cc1` [Example 45, (S)-2-(tert-Butoxy)-2-(4-(chroman-6-yl)-5-(4-(2-fluorophenethoxy)phenyl)-2,6-dimethylpyridin-3-yl)acetic Acid], the pEC50 is over 7.00.
As to `Cc1nc(C)c([C@H](OC(C)(C)C)C(=O)O)c(-c2ccc3c(c2)C(F)(F)CCO3)c1-c1ccc2c(c1)CCN(Cc1ccccc1F)C2` [Example 37, (S)-2-(tert-Butoxy)-2-(4-(4,4-difluorochroman-6-yl)-5-(2-(2-fluorobenzyl)-1,2,3,4-tetrahydroisoquinolin-6-yl)-2,6-dimethylpyridin-3-yl)acetic Acid], the pEC50 was over 7.00.
Consider `Cc1nc(C)c([C@H](OC(C)(C)C)C(=O)O)c(-c2cc(F)c3c(c2)CCCO3)c1-c1ccc2c(c1)CCN(c1ncnc3c1cnn3C)C2` [Example 53, (S)-2-(tert-Butoxy)-2-(4-(8-fluorochroman-6-yl)-2,6-dimethyl-5-(2-(1-methyl-1H-pyrazolo[3,4-d]pyrimidin-4-yl)-1,2,3,4-tetrahydroisoquinolin-6-yl)pyridin-3-yl)acetic Acid], for which the pEC50 is over 7.00.
On the same count and under the same terms, the same measure for `Cc1nc(CN(C)C)c(-c2ccc(OCCc3ccc(F)cc3)cc2)c(-c2ccc3c(c2)CCCO3)c1[C@H](OC(C)(C)C)C(=O)O` [Example 10, (S)-2-(tert-Butoxy)-2-(4-(chroman-6-yl)-6-((dimethylamino)methyl)-5-(4-(4-fluorophenethoxy)phenyl)-2-methylpyridin-3-yl)acetic Acid]: over 7.00.
As to `Cc1cccc(F)c1CN1CCc2cc(-c3c(CN(C)CC4CCOCC4)nc(C)c([C@H](OC(C)(C)C)C(=O)O)c3-c3ccc4c(c3)CCCO4)ccc2C1` [Example 34, (S)-2-(tert-Butoxy)-2-(4-(chroman-6-yl)-5-(2-(2-fluoro-6-methylbenzyl)-1,2,3,4-tetrahydroisoquinolin-6-yl)-2-methyl-6-((methyl((tetrahydro-2H-pyran-4-yl)methyl)amino)methyl)pyridin-3-yl)acetic Acid], the pEC50 is over 7.00.
